Measurements as given in PubChem BioAssay (NCI).
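Five compound concentrations were applied to cells in 96-well plates for 48 hours; endpoints were derived by simple linear interpolation of the resulting dose-response curve. The concentration for 50% growth inhibition is given as GI50. Definition used: TGI = concentration required for complete inhibition of growth.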

How the values were obtained:
Assay in all cases: inhibition of tumour cell growth, NCI panel, 48 h
[1] = test system: SN12C renal
[2] = test system: SNB-75 CNS
[3] = test system: SF-295 CNS
[4] = test system: UACC-257 melanoma
[5] = test system: OVCAR-8 ovarian
[6] = test system: HCC-2998 colon
[7] = test system: HOP-62 NSCLC
[8] = test system: OVCAR-5 ovarian
[9] = test system: UO-31 renal
[10] = test system: CAKI-1 renal
[11] = test system: NCI-H460 lung
[12] = test system: MDA-MB-435
[13] = test system: MALME-3M melanoma
[14] = test system: RXF 393 renal
[15] = test system: SF-539 CNS
[16] = test system: T-47D breast
[17] = test system: NCI-H226 lung
[18] = test system: OVCAR-3 ovarian
[19] = test system: HL-60(TB) leukemia
[20] = test system: NCI-H522 lung
[21] = test system: OVCAR-4 ovarian
[22] = test system: U251 CNS
[23] = test system: NCI-H23 lung
[24] = test system: RPMI-8226 leukemia
[25] = test system: DU-145 prostate
[26] = test system: SK-OV-3 ovarian
[27] = test system: M14 melanoma
[28] = test system: UACC-62 melanoma
[29] = test system: A549 NSCLC
[30] = test system: SK-MEL-2 melanoma
[31] = test system: SNB-19 CNS
[32] = test system: BT-549 breast
[33] = test system: EKVX NSCLC
[34] = test system: SK-MEL-5 melanoma
[35] = test system: TK-10 renal
[36] = test system: HS 578T breast
[37] = test system: COLO 205 colon
[38] = test system: HCT-116 colon
[39] = test system: MDA-MB-231 breast
[40] = test system: PC-3 prostate
[41] = test system: SW-620 colon
[42] = test system: SF-268 CNS
[43] = test system: HT29 colon
[44] = test system: ACHN renal
[45] = test system: LOX IMVI melanoma
[46] = test system: CCRF-CEM leukemia
[47] = test system: A498 renal
[48] = test system: HOP-92 NSCLC
[49] = test system: MOLT-4 leukemia
[50] = test system: SR leukemia
[51] = test system: HCT-15 colon
[52] = test system: K-562 leukemia
[53] = test system: NCI/ADR-RES ovarian
[54] = test system: 786-0 renal
[55] = test system: SK-MEL-28 melanoma
[56] = test system: KM12 colon
[57] = test system: MCF7 breast
[58] = test system: IGROV1 ovarian

Oc1ccc(CCl)c2cccnc12
GI50 [1]: 12.5 µM | TGI [1]: > 100 µM | GI50 [2]: 44 µM | TGI [2]: > 100 µM | GI50 [3]: 3.72 µM | TGI [3]: 25.8 µM | GI50 [4]: 4.21 µM | TGI [4]: > 100 µM | GI50 [5]: 4.93 µM | TGI [5]: > 100 µM | GI50 [6]: 33.5 µM | TGI [6]: > 100 µM | GI50 [7]: 16 µM | TGI [7]: > 100 µM | GI50 [8]: 17.5 µM | TGI [8]: > 100 µM | GI50 [9]: 2.9 µM | TGI [9]: > 100 µM | GI50 [10]: 5.91 µM | TGI [10]: 53.3 µM | GI50 [11]: 3.95 µM | TGI [11]: 16 µM | GI50 [12]: 5.81 µM | TGI [12]: 95.3 µM | GI50 [13]: 4.44 µM | TGI [13]: 36 µM | GI50 [14]: 32.9 µM | TGI [14]: > 100 µM | GI50 [15]: 14.5 µM | TGI [15]: > 100 µM | GI50 [16]: 3.65 µM | TGI [16]: > 100 µM | GI50 [17]: 34.6 µM | TGI [17]: > 100 µM | GI50 [18]: 2.08 µM | TGI [18]: 5.5 µM | GI50 [19]: 1.36 µM | TGI [19]: 17.7 µM | GI50 [20]: 3.62 µM | TGI [20]: > 100 µM | GI50 [21]: 3.41 µM | TGI [21]: > 100 µM | GI50 [22]: 7.7 µM | TGI [22]: > 100 µM | GI50 [23]: 6.13 µM | TGI [23]: > 100 µM | GI50 [24]: 4.25 µM | TGI [24]: > 100 µM | GI50 [25]: 15.7 µM | TGI [25]: > 100 µM | GI50 [26]: 43.8 µM | TGI [26]: > 100 µM | GI50 [27]: 3.2 µM | TGI [27]: > 100 µM | GI50 [28]: 8.37 µM | TGI [28]: > 100 µM | GI50 [29]: 14.3 µM | TGI [29]: > 100 µM | GI50 [30]: > 100 µM | TGI [30]: > 100 µM | GI50 [31]: 22.9 µM | TGI [31]: > 100 µM | GI50 [32]: 32.4 µM | TGI [32]: > 100 µM | GI50 [33]: 3.21 µM | TGI [33]: 31.6 µM | GI50 [34]: 12.4 µM | TGI [34]: 35.6 µM | GI50 [35]: > 100 µM | TGI [35]: > 100 µM | GI50 [36]: 6.94 µM | TGI [36]: 91.3 µM | GI50 [37]: 7.05 µM | TGI [37]: > 100 µM | GI50 [38]: 3.29 µM | TGI [38]: > 100 µM | GI50 [39]: 6.07 µM | TGI [39]: > 100 µM | GI50 [40]: 12.3 µM | TGI [40]: > 100 µM | GI50 [41]: 4.12 µM | TGI [41]: > 100 µM | GI50 [42]: 6.84 µM | TGI [42]: > 100 µM | GI50 [43]: 9.68 µM | TGI [43]: > 100 µM | GI50 [44]: 6.88 µM | TGI [44]: > 100 µM | GI50 [45]: 4.9 µM | TGI [45]: > 100 µM | GI50 [46]: 4.1 µM | TGI [46]: > 100 µM | GI50 [47]: 46.5 µM | TGI [47]: > 100 µM | GI50 [48]: 14.5 µM | TGI [48]: 90 µM | GI50 [49]: 3.96 µM | TGI [49]: > 100 µM | GI50 [50]: 3.43 µM | TGI [50]: 53.6 µM | GI50 [51]: 3.8 µM | TGI [51]: > 100 µM | GI50 [52]: 3.39 µM | TGI [52]: > 100 µM | GI50 [53]: 2.98 µM | TGI [53]: 28.9 µM | GI50 [54]: 37.7 µM | TGI [54]: > 100 µM | GI50 [55]: 59 µM | TGI [55]: > 100 µM | GI50 [56]: 11.3 µM | TGI [56]: > 100 µM

ClCCN1CCOC1=C1C=CC=C1
TGI [1]: > 100 µM | TGI [57]: > 100 µM | TGI [2]: > 100 µM | TGI [3]: > 100 µM | TGI [4]: > 100 µM | TGI [5]: > 100 µM | TGI [7]: > 100 µM | TGI [8]: > 100 µM | TGI [9]: > 100 µM | TGI [10]: > 100 µM | TGI [11]: > 100 µM | TGI [12]: > 100 µM | TGI [15]: > 100 µM | TGI [16]: > 100 µM | TGI [17]: > 100 µM | TGI [18]: > 100 µM | TGI [19]: > 100 µM | TGI [22]: > 100 µM | TGI [23]: > 100 µM | TGI [24]: > 100 µM | TGI [25]: > 100 µM | TGI [26]: > 100 µM | TGI [27]: > 100 µM | TGI [29]: > 100 µM | TGI [31]: > 100 µM | TGI [32]: > 100 µM | TGI [33]: > 100 µM | TGI [34]: > 100 µM | TGI [36]: > 100 µM | TGI [37]: > 100 µM | TGI [58]: > 100 µM | TGI [38]: > 100 µM | TGI [39]: > 100 µM | TGI [40]: > 100 µM | TGI [41]: > 100 µM | TGI [42]: > 100 µM | TGI [43]: > 100 µM | TGI [44]: > 100 µM | TGI [45]: > 100 µM | TGI [46]: > 100 µM | TGI [47]: > 100 µM | TGI [48]: > 100 µM | TGI [49]: > 100 µM | TGI [50]: 40.4 µM | TGI [51]: > 100 µM | TGI [53]: > 100 µM | TGI [54]: > 100 µM | TGI [55]: > 100 µM | TGI [56]: > 100 µM
